What all share (format): biochemical
The subject of series [1] is human RAS in blood plasma. Kind of series: Ex vivo incubation of renin-spiked human plasma, RAS-Fingerprinting by LC-MS/MS. As to conditions: human plasma + 100 pg/mL recombinant human renin, 10 μM Lisinopril present, without or with 5 μg/mL enzyme, 10 min 37°C (Fig 3b).
Procedure: Anticoagulated blood was collected from healthy volunteers, and plasma was separated by 10 minutes centrifugation at 3000 RCF. […] After 10 minutes of incubation at 37°C, in the presence or absence of Lisinopril (Sigma), samples were chilled on ice and immediately subjected to LC-MS/MS analysis.
Plasma samples were spiked with 100 pg/mL stable-isotope-labeled internal standards and subjected to solid-phase extraction using Sep-Pak cartridges (Waters) according to manufacturers protocol. Following elution and solvent evaporation, samples were reconstituted in 50 μL 50% acetonitrile/0.1% formic acid and subjected to LC-MS/MS analysis using a reversed-phase analytical column (Luna C18, Phenomenex) using a gradient ranging from 10% acetonitrile/0.1% formic acid to 70% acetonitrile/0.1% formic acid in 9 minutes. The eluate was analyzed in line with a QTRAP-4000 mass spectrometer (AB Sciex) operated in the MRM mode using dwell times of 25 msec at a cone voltage of 4000 volts and a source temperature of 300°C. For each peptide and corresponding internal standards, two different mass transitions were measured. Angiotensin peptide concentrations were calculated by relating endogenous peptide signals to internal standard signals provided that integrated signals achieved a signal-to-noise ratio above 10.
RAS-Fingerprints were measured by LC-MS/MS as indicated in Section 2. Samples were incubated in the absence (a) or presence (b) of 10 μM of the ACE inhibitor Lisinopril. In this figure, the diameter of the spheres reflects the concentration of the respective peptide metabolite, which is also given in pg/mL next to each individual sphere. 0 pg/mL indicates concentrations below quantification limits, which are defined by a signal-to-noise ratio below 10. Furthermore, the amino acid sequence of each angiotensin metabolite is schematically given in brackets beside the corresponding sphere. The sequence annotation is based on the decapeptide Angiotensin I (1–10) which is N- or C-terminally cleaved by the indicated proteases. […]
A further series deals with RAS in whole blood. Put plainly: Ex vivo incubation of whole blood, RAS-Fingerprinting. As to conditions: whole blood instead of plasma, control and rhACE2 samples (Supplementary Figure 1). The source says:
These findings were in contrast to previously published reports on Ang 1–7 accumulating effects of ACE inhibitors in vivo [20, 21]. In our experimental setting, we employed heparinized blood plasma as a sample matrix for ACE2 characterization which is reflecting in vivo conditions very well. However, plasma lacks all blood cells which might carry receptors and angiotensin peptide converting enzymes being able to affect angiotensin peptide concentrations in vivo. […] As neutral endopeptidase (NEP, CD10) is known to be expressed on the cell surface of leukocytes and that it is able to convert Ang 1–10 and Ang 1–9 to Ang 1–7 in vitro [18], NEP is very likely to be responsible for Ang 1–7 accumulation also in vivo, especially in the presence of ACE inhibitors which block the formation of Ang 1–8 which is an important precursor for Ang 1–7.

A further series has as its system Ang 1–10. Kind of series: In vitro kinetic assay, Ang 1–10 cleavage to Ang 1–9, HPLC quantification. As to conditions: […] enzyme, 65 μM Ang 1–10, MES buffer pH 6.5, 37°C, HPLC; mean of substrate degradation and product formation rates related to enzyme concentration; triplicates. The method, then:
(§1) Enzyme reactions were started by adding a defined amount of enzyme to substrate dilutions in MES-buffer (50 mM MES, 300 mM NaCl, 10 μM ZnCl2, 0.01% Brij-35, pH 6.5) which were previously equilibrated at 37°C. Aliquots of the reaction mixes were taken every 10 minutes and stopped by addition of 0.5 M EDTA to a final concentration of 100 mM before HPLC-based quantification of peptides.
(§2) The concentration of peptides in enzymatic reactions was quantified by detection of peaks eluted from the HPLC column using an in-line diode array detector. Chromatography was performed by running a gradient on a reversed-phase matrix (Source 5RPC, 4.6×150 mm, 5 μm) with 0.08% H3PO4 in water as mobile phase A and 40% acetonitrile in water and 0.08% H3PO4 as mobile phase B. The optical density at 280 nm was recorded inline for all eluting peaks, and peptide concentrations were calculated via calibration curves for each individual peptide.
The turnover rates for natural ACE2 substrates were determined by in vitro incubation with excess amounts of substrate followed by reversed-phase HPLC analysis. […] Each time point was analyzed in true triplicates and standard deviations are given in the graphs together with linear regressions of the measured values.

A further series has as its system Ang 1–8. Kind of series: In vitro kinetic assay, Ang 1–8 cleavage to Ang 1–7, HPLC quantification. As to conditions: ratio of k cat of the same enzyme for the two substrates. As for the experimental part:
as §1, §2
The turnover rates for natural ACE2 substrates were determined by in vitro incubation with excess amounts of substrate followed by reversed-phase HPLC analysis. […] The resulting time courses are shown in the graphs. […] Each time point was analyzed in true triplicates and standard deviations are given in the graphs together with linear regressions of the measured values.

Where only a bound is given, the exact number is not on record here.

Consider `NCCCC[C@H](N[C@@H](CCc1ccccc1)C(=O)O)C(=O)N1CCC[C@H]1C(=O)O` [Lisinopril], for which the “Ang (1–10) concentration in plasma” value in series [1] (0 = below quantification limit) was 710 pg/mL. In addition, the “Ang (1–7) concentration in plasma” value in series [1] (0 = below quantification limit (2 pg/mL plasma)) was less than 2 pg/mL. In addition, the “Ang 1–7 concentration in whole blood in response to Lisinopril” value with RAS in whole blood is “increase of Ang 1–7 concentrations”.

Consider “rhACE2: extracellular domain of human ACE2 recombinantly expressed in CHO cells”, for which, in the series with Ang 1–10, the “k cat, Ang 1–10 ≥ Ang 1–9” value was 0.018 s⁻¹. For the same molecule, the “turnover number for Ang 1–8 compared to Ang 1–10” value in the series with Ang 1–8 amounted to 42 fold.

These data come from article PMC3299299, “Recombinant Expression and Characterization of Human and Murine ACE2: Species-Specific Activation of the Alternative Renin-Angiotensin-System” (International Journal of Hypertension, 2012).
